Tests used:
Botrytis Cinerea = experiment: Botrytis cinerea / tomato / preventive; type: in vivo; settings: 72 h, preventive spray, tomato plants cv. Roter Gnom, assessed 3 days after inoculation, read-out: inhibit fungal infestation
Description: (§1) Botrytis Cinerea/Tomato/Preventive (Action Against Botrytis on Tomato) 4 weeks old tomato plants cv. Roter Gnom are treated with the formulated test compound in a spray chamber. Two days after application tomato plants are inoculated by spraying a spore suspension on the test plants. After an incubation period of 3 days at 20° C. and 95% r. h. in a greenhouse the disease incidence is assessed.

Septoria Tritici = experiment: Septoria tritici / wheat / preventive (Septoria leaf spot); type: in vivo; settings: Zymoseptoria tritici, preventive spray, wheat plants cv. Riband, assessed 16-18 days after inoculation, read-out: inhibits fungal infestation
Description: Septoria Tritici/Wheat/Preventive (Action Against Septoria Leaf Spot on Wheat) 2 weeks old wheat plants cv. Riband are treated with the formulated test compound in a spray chamber. One day after application wheat plants are inoculated by spraying a spore suspension (10^6 conidia/ml) on the test plants. After an incubation period of 1 day at 22° C./21° C. and 95% r. h. plants are kept at 22° C./21° C. and 70% r.h. in a greenhouse. The disease incidence is assessed 16-18 days after inoculation.

Uncinula Necator = experiment: Uncinula necator / grape / preventive (powdery mildew); type: in vivo; settings: Erysiphe necator, 168 h, preventive spray, grape seedlings cv. Gutedel, assessed 7 days after inoculation, read-out: inhibit fungal infestation
Description: Uncinula Necator/Grape/Preventive (Action Against Powdery Mildew on Grape) 5 weeks old grape seedlings cv. Gutedel are treated with the formulated test compound in a spray chamber. One day after application grape plants are inoculated by shaking plants infected with grape powdery mildew above the test plants. After an incubation period of 7 days at 24° C./22° C. and 70% r. h. under a light regime of 14/10 h (light/dark) the disease incidence is assessed.

[1] = test system: Pyrenophora Teres (Helminthosporium Teres); experiment: Pyrenophora teres (Helminthosporium teres) / barley / preventive (net blotch); type: in vivo; settings: 96 h, preventive spray, barley plants cv. Regina, assessed 4 days after inoculation, read-out: inhibit fungal infestation
Description: Pyrenophora Teres (Helminthosporium Teres)/Barley/Preventive (Action Against Net Blotch on Barley) 1-week-old barley plants cv. Regina are treated with the formulated test compound in a spray chamber. Two days after application barley plants are inoculated by spraying a spore suspension (2.6×10^4 conidia/ml) on the test plants. After an incubation period of 4 days at 20° C. and 95% r. h. the disease incidence is assessed.

Puccinia Recondita = experiment: Puccinia recondita / wheat / preventive (brown rust); type: in vivo; settings: 264 h, preventive spray, wheat plants cv. Arina, assessed 11 days after inoculation, read-out: inhibits fungal infestation
Description: Puccinia Recondita/Wheat/Preventive (Action Against Brown Rust on Wheat) 1 week old wheat plants cv. Arina are treated with the formulated test compound in a spray chamber. One day after application wheat plants are inoculated by spraying a spore suspension ([…] uredospores/ml) on the test plants. After an incubation period of 1 day at 20° C. and 95% r. h. plants are kept for 10 days 20° C./18° C. (day/night) and 60% r.h. in a greenhouse. The disease incidence is assessed 11 days after inoculation.

[2] = test system: Magnaporthe Grisea (Pyricularia Oryzae); experiment: whole plant or invertebrate; type: in vivo; settings: 144 h, read-out: inhibit fungal infestation
Alternaria Solani = experiment: Alternaria solani / tomato / preventive; type: in vivo; settings: 96 h, preventive spray, tomato plants cv. Roter Gnom, assessed 4 days after inoculation, read-out: inhibit fungal infestation
Description: as §1, with “Alternaria Solani/Tomato/Preventive” for “Botrytis Cinerea/Tomato/Preventive”, “Alternaria” for “Botrytis”, “4” for “3”, “22° C./18°” for “20°”

Compound	melting point	inhibition at 200 ppm (Botrytis Cinerea)	inhibition at 200 ppm (Septoria Tritici)	inhibition at 200 ppm (Uncinula Necator)	inhibition at 200 ppm [1]	inhibition at 200 ppm (Puccinia Recondita)	inhibition at 200 ppm [2]	inhibition at 200 ppm (Alternaria Solani)
Cc1nnc(Cl)c(-c2c(F)cc(F)cc2F)c1-c1ccc2ccccc2c1 [I.ae.198, 3-chloro-6-methyl-5-naphthalen-2-yl-4-(2,4,6-trifluorophenyl)-pyridazine]	86 to 89 °C	≥ 80%	≥ 80%	≥ 80%	≥ 80%	≥ 80%	≥ 80%	≥ 80%
Cc1nnc(F)c(-c2c(F)cc(F)cc2F)c1-c1ccc2ccccc2c1 [I.ae.197, 3-fluoro-6-methyl-5-naphthalen-2-yl-4-(2,4,6-trifluorophenyl)-pyridazine]	108 to 110 °C	≥ 80%	≥ 80%		≥ 80%	≥ 80%	≥ 80%	
COc1nnc(C)c(-c2ccc3ccccc3c2)c1-c1c(F)cc(F)cc1F [I.ae.199, 3-methoxy-6-methyl-5-naphthalen-2-yl-4-(2,4,6-trifluorophenyl)-pyridazine]	138 to 140 °C	≥ 80%		≥ 80%	≥ 80%			≥ 80%
COc1nnc(C)c(-c2ccc3ccccc3c2)c1-c1c(F)cccc1Cl [I.ae.079, 4-(2-chloro-6-fluorophenyl)-3-methoxy-6-methyl-5-naphthalen-2-yl-pyridazine]	182 to 184 °C	≥ 80%		≥ 80%			≥ 80%	
Cc1n[nH]c(=O)c(-c2c(F)cc(F)cc2F)c1-c1ccc2ccccc2c1 [I.ae.196, 6-methyl-5-naphthalen-2-yl-4-(2,4,6-trifluorophenyl)-2H-pyridazin-3-one]	266 to 268 °C							
Cc1nnc(C)c(-c2c(F)cccc2Cl)c1-c1ccc2ccccc2c1 [I.ae.080, 4-(2-chloro-6-fluorophenyl)-3,6-dimethyl-5-naphthalen-2-yl-pyridazine]	120 to 123 °C		≥ 80%				≥ 80%	≥ 80%
